Earlier results, collected in patent US20260345619A1 (Principia Biopharma Inc., priority 2023, published 2026).
Read-outs that look alike come from different tables or passages of the source.

Experiments:
[1] = cited from earlier work
[2] = system: 251 kinases sharing a common cysteine in their active site; details: 1 μM; panel of 251 kinases; cited from earlier work

## omalizumab: anti-immunoglobulin E (IgE) agent
[1]; in vivo
  black box warning: black box warning of potential for anaphylaxis
[1]; severe, corticosteroid-refractory allergy-induced asthma
  efficacy: has shown efficacy

## C=CC(=O)N1CCC[C@@H](n2nc(-c3ccc(Oc4ccccc4)cc3)c3c(N)ncnc32)C1 [ibrutinib, reference compound]
[2]
  number of kinases inhibited (>90% inhibition): 21 kinases

## benralizumab: anti-IL5 receptor
[1]; severe asthma, eosinophilic phenotype
  efficacy: have shown efficacy
